Measured values: ChEMBL document CHEMBL3714714, “Hepatocyte nuclear factor 4alpha modulator compounds” (2005)

How the values were obtained:
[1] = target: T1, Hepatocyte nuclear factor 4-alpha (Rattus norvegicus, UniProt P22449); test: Agonist activity at rat HNF4alpha1 expressed in African green monkey CV1 cells incubated for 24 hrs by firefly luciferase reporter gene assay; assay type: functional, cell-based, CV-1
T1 sequence (P22449 whole entry): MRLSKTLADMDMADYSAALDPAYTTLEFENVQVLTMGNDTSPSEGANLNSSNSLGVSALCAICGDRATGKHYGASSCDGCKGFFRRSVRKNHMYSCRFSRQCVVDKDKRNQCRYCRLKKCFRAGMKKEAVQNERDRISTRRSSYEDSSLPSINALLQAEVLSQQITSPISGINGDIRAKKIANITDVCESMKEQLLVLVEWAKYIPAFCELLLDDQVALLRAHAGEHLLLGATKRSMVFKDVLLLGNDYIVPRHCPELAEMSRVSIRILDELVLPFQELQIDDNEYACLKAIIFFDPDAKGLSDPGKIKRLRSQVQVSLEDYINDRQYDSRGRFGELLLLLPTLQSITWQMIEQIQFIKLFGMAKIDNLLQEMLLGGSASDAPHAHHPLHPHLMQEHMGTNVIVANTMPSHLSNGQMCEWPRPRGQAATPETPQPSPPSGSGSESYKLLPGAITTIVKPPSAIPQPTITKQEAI

[2] = target: T2, Hepatocyte nuclear factor 4-alpha (Rattus norvegicus) (UniProt P22449); test: Agonist activity at rat HNF4alpha1 expressed in African green monkey CV1 cells incubated for 24 hrs by firefly luciferase reporter gene assay relative to LG0100695; assay type: functional, cell-based; settings: CV-1
T2 sequence (whole entry): T1 sequence (P22449 whole entry)

[3] = target: T3, Hepatocyte nuclear factor 4-alpha (Homo sapiens, UniProt P41235); test: Displacement of [3H]methyl4-[5,6,7,8-tetrahydro-5,5,8,8-tetramethyl-3-ethyloxy-2-naphthalenyl]benzoyl benzoate from HNF4alpha (unknown origin) by radioligand binding assay
T3 sequence (P41235 whole entry): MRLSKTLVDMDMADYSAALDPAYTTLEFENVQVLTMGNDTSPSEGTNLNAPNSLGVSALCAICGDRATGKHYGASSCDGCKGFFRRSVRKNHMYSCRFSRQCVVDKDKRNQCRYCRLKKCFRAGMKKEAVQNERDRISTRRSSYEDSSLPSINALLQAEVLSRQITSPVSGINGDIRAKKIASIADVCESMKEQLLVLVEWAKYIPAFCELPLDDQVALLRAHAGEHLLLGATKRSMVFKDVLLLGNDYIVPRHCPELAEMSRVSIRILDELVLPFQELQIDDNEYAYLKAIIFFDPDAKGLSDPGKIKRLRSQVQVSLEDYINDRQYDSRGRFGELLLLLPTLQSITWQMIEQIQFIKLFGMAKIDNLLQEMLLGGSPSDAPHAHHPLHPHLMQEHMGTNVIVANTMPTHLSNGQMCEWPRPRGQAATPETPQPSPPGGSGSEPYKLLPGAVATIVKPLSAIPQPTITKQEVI

[4] = target: T4, Retinoic acid receptor RXR-alpha (Homo sapiens, UniProt P19793); test: Displacement of [3H]9-cis-retinoic acid from RXRalpha (unknown origin) by radioligand binding assay
T4 sequence (P19793 whole entry): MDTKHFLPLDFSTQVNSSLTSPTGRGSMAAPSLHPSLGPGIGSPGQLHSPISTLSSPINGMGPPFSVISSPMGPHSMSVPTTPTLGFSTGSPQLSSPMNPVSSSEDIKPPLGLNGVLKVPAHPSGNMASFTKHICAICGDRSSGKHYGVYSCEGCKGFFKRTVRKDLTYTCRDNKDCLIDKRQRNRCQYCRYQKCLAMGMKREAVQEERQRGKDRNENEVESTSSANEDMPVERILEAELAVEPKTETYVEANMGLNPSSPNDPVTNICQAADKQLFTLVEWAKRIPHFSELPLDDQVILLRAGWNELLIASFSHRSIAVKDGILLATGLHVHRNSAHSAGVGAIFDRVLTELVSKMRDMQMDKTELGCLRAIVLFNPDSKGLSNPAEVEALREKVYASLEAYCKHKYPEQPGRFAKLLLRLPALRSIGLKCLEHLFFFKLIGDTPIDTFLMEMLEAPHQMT

[5] = target: T2, Hepatocyte nuclear factor 4-alpha (Rattus norvegicus); test: Antagonist activity against rat HNF4alpha1 expressed in African green monkey CV1 cells assessed as reduction in endogenous agoinst-induced luciferase expression incubated for 24 hrs by firefly luciferase reporter gene assay relative to control; assay type: functional, cell-based; settings: CV-1
[6] = target: T1, Hepatocyte nuclear factor 4-alpha; test: Antagonist activity against rat HNF4alpha1 expressed in African green monkey CV1 cells assessed as reduction in endogenous agoinst-induced luciferase expression incubated for 24 hrs by firefly luciferase reporter gene assay; assay type: functional, cell-based, CV-1

| Structure (SMILES) | EC50 [1] | Efficacy [2] | Ki [3] | Ki [4] | Efficacy [5] | IC50 [6] |
| --- | --- | --- | --- | --- | --- | --- |
| Cc1c(C(=O)c2ccc(C(=O)O)cc2)cc2c(c1[N+](=O)[O-])C(C)(C)CCC2(C)C | 2230 nM | 43% | 165 nM | > 5000 nM |  |  |
| CCCCOC(c1ccc(C(=O)O)cc1)c1cc2c(cc1OCC)C(C)(C)CCC2(C)C (stereo unspecified) |  |  | 339 nM | 2700 nM | 108% | 4 nM |
| Cc1cc2c(cc1C(OCc1ccccc1F)c1ccc(C(=O)O)cc1)C(C)(C)CCC2(C)C (stereo unspecified) |  |  | 580 nM | 5200 nM | 106% | 4 nM |
| CCOc1cc2c(cc1/C(=N/Nc1cc(F)ccc1F)c1ccc(C(=O)O)cc1)C(C)(C)CCC2(C)C |  |  | 215 nM | 3000 nM | 110% | 1 nM |
| Cc1cc2c(cc1C(NCc1cccc(F)c1)c1ccc(C(=O)O)cc1)C(C)(C)CCC2(C)C (stereo unspecified) |  |  | 1400 nM | 6500 nM |  |  |
| CC1(C)CCC(C)(C)c2cc(C(=O)c3ccc(C(=O)O)cc3)c(OCC(F)(F)F)cc21 | 2190 nM | 33% | 96 nM | 1500 nM |  |  |
| Cc1cc2c(cc1C(OCc1ccc(SC(F)(F)F)cc1)c1ccc(C(=O)O)cc1)C(C)(C)CCC2(C)C (stereo unspecified) |  |  | 1190 nM | 3000 nM |  |  |
| CCOc1cc2c(cc1/C(=N/OCc1cccc(F)c1F)c1ccc(C(=O)O)cc1)C(C)(C)CCC2(C)C |  |  | 966 nM | > 30000 nM | 118% | 35 nM |
| Cc1cc2c(c(O)c1C(=O)c1ccc(C(=O)O)cc1)C(C)(C)CCC2(C)C | 2640 nM | 103% | 710 nM | > 30000 nM |  |  |
| CCCCCCO/N=C(\c1ccc(C(=O)O)cc1)c1cc2c(cc1OCC)C(C)(C)CCC2(C)C |  |  | 322 nM | 1900 nM | 120% | 1 nM |

Continued by falling Ki [3], values first:

| EC50 [1] | Efficacy [2] | Ki [3] | Ki [4] | Efficacy [5] | IC50 [6] | Structure (SMILES) |
| --- | --- | --- | --- | --- | --- | --- |
|  |  | 5210 nM | > 30000 nM | 121% | 22 nM | Cc1ccc(S(=O)(=O)Nc2c(C)c(Cc3ccc(C(=O)O)cc3)cc3c2C(C)(C)CCC3(C)C)cc1 |
| 2850 nM | 42% | 4600 nM | > 30000 nM |  |  | COc1c(C(=O)c2ccc(C(=O)O)cc2)cc2c(c1C)N(C)CCC2(C)C |
| 2950 nM | 88% | 2200 nM | > 30000 nM |  |  | Cc1c(C(=O)c2ccc(C(=O)O)cc2)cc2c(c1[N+](=O)[O-])OCCC2(C)C |
|  |  | 1010 nM | > 30000 nM | 103% | 19 nM | Cc1ccc(C)c(N/N=C(\c2ccc(C(=O)O)cc2)c2cc3c(cc2C)C(C)(C)CCC3(C)C)c1 |
| 2240 nM | 68% | 721 nM | 3000 nM |  |  | CCOc1cc2c(cc1C(=O)c1ccc(C(=O)O)cc1)C(C)(C)CCO2 |
|  |  | 514 nM | > 10000 nM | 100% | 103 nM | CC1(C)CCC(C)(C)c2cc(/C(=N\Nc3ccccc3)c3ccc(C(=O)O)cc3)ccc21 |
| 1140 nM | 95% | 364 nM | > 10000 nM |  |  | CCOc1cc2c(cc1C(=O)c1ccc(C(=O)C(=O)O)cc1)C(C)(C)CCC2(C)C |
|  |  | 244 nM | 4600 nM | 119% | 3 nM | CCOc1cc2c(cc1/C(=N/OCCC(C)C)c1ccc(C(=O)O)cc1)C(C)(C)CCC2(C)C |
| 594 nM | 57% | 163 nM | > 10000 nM |  |  | CC1(C)CCC(C)(C)c2c1cc(C(=O)c1ccc(C(=O)O)cc1)c(OCC(F)F)c2[N+](=O)[O-] |
| 263 nM | 100% | 110 nM | 824 nM |  |  | CCOc1cc2c(cc1C(=O)c1ccc(C(=O)O)cc1)C(C)(C)CCC2(C)C |
